In PubChem BioAssay (NCI):
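These data come from cells grown in 96-well plates and exposed to compound for 48 hours at five concentrations. TGI marks complete inhibition of growth.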 Where a SMILES comes first, the peptide text is derived from it. The star is where a group is joined. Cbz = O=C(OCc1ccccc1)*; NHNH2 = NN*

Columns and labels:
Assay in all cases: NCI-60 cell line screen, 48 h
A549 NSCLC = system: A549 NSCLC
CCRF-CEM leukemia = system: CCRF-CEM leukemia
HCT-15 colon = system: HCT-15 colon
NCI-H522 lung = system: NCI-H522 lung
NCI/ADR-RES ovarian = system: NCI/ADR-RES ovarian
RXF 393 renal = system: RXF 393 renal
SW-620 colon = system: SW-620 colon
OVCAR-3 ovarian = system: OVCAR-3 ovarian
SR leukemia = system: SR leukemia
UACC-257 melanoma = system: UACC-257 melanoma

| Structure (SMILES) | TGI (A549 NSCLC) [µM] | TGI (CCRF-CEM leukemia) [µM] | TGI (HCT-15 colon) [µM] | TGI (NCI-H522 lung) [µM] | TGI (NCI/ADR-RES ovarian) [µM] | TGI (RXF 393 renal) [µM] | TGI (SW-620 colon) [µM] | TGI (OVCAR-3 ovarian) [µM] | TGI (SR leukemia) [µM] | TGI (UACC-257 melanoma) [µM] |
| --- | --- | --- | --- | --- | --- | --- | --- | --- | --- | --- |
| O=C(N/N=C/c1ccco1)c1cc(I)cc(I)c1O | > 50 | > 50 | > 50 | > 50 | > 50 | > 50 | > 50 |  |  |  |
| COC(=O)C1=Nc2c(C)nn(-c3ccccc3)c2N=C(c2ccc([N+](=O)[O-])cc2)C1 | > 10 | > 10 | > 10 | > 10 | > 10 |  | > 10 | > 10 | > 10 | > 10 |
| COc1c(Br)cc(CC(N)=O)c(O)c1Br | > 100 | > 100 |  | > 100 |  | > 100 | > 100 | > 100 | > 100 | > 100 |
| Cc1nc(C)c(Cc2ccccc2)o1 | > 100 | > 100 | > 100 | > 100 | > 100 | > 100 | > 100 | > 100 |  | > 100 |
| Nc1ccc2[nH]c(-c3cccc(Cl)c3)cc(=O)c2c1 | > 100 | > 100 | > 100 | 6.87 | 12.4 |  | > 100 |  |  | > 100 |
| Nc1c(C(=O)c2ccc(Cl)cc2)[nH]c(NCc2ccccc2)c1C(=S)Nc1ccccc1 | 4.87 | 5.54 | 3.36 | 3.38 | 24.2 | 4.16 | 3.63 | 20.2 |  | 3.26 |
| O=C(Cc1ccccc1)NN1C(=O)/C(=C\c2ccc([N+](=O)[O-])cc2)SC1=Nc1ccccc1 | > 100 | > 100 | > 100 |  | > 100 | > 100 | > 100 | > 100 |  | > 100 |
| COC(=O)CC(NC(=O)OCc1ccccc1)C(=O)NC(CC(=O)OC)C(=O)NC(CC(=O)OC)C(=O)NC(CC(=O)OC)C(=O)NC(CC(=O)OC)C(=O)NC(CC(=O)OC)C(=O)NN (stereo not drawn) (Cbz-D(OMe)D(OMe)D(OMe)D(OMe)D(OMe)D(OMe)-NHNH2; configuration not given here) |  | > 100 | > 100 |  |  |  | > 100 |  | > 100 | > 100 |
| N#Cc1cc2c(cc1Cl)Sc1nccn1S2(=O)=O | 28.7 |  | 3.28 | 4.11 | 3.9 | 15.5 | 14.4 | 2.13 | 3.54 | 5.81 |
| CN(C)CCn1c(=O)c2ccc(NCCCN(C)CCCNc3ccc4c(=O)n(CCN(C)C)c(=O)n5c6ccc([N+](=O)[O-])cc6c(=O)c3c45)c3c(=O)c4cc([N+](=O)[O-])ccc4n(c1=O)c23 | 0.308 |  | 0.542 | 0.134 |  |  |  | 1.31 |  | 2.13 |
| C=CCOCCCCC(C(C)=O)C(=O)OC (stereo not drawn) | > 100 | > 100 | > 100 | > 100 |  | > 100 | > 100 | > 100 | > 100 | > 100 |
| C=c1c(OC)c(OC)c(O)c2c1=c1cc([N+](=O)[O-])cc(OC)c1=N2 | > 100 | > 100 | > 100 | > 100 | > 100 | > 100 | > 100 | > 100 |  | > 100 |
| O=C(O)C(CS)N=c1c2ccccc2n(O)c2ccccc12 (stereo not drawn) | > 100 | > 100 | > 100 | > 100 |  |  | > 100 | > 100 |  | > 100 |
| COC(=O)/C=C/c1cc(OC)c(OC)c(OC)c1 | > 100 | > 100 | > 100 | > 100 |  | > 100 | > 100 | > 100 | > 100 | > 100 |
| COc1ccc2c(c1)CC1=C(O2)c2ccc(OC)cc2OC1 | > 100 | > 100 | 36.8 | 35.4 | > 100 |  | 34.6 | 36.4 | > 100 | 37.8 |
| O=C(O)C(CO)NC(=O)n1c2ccccc2c2ccccc21 (stereo not drawn) | > 100 | > 100 | > 100 | > 100 |  | > 100 | > 100 | > 100 | > 100 | > 100 |
| CC(=O)OCC(OC(C)=O)C1C[C@H]2O[C@@H]3[C@H](C[C@H]2O1)O[C@@]1(C[C@@H]3C)C[C@H](C)[C@@H]2O[C@]3(C[C@@H]2O1)C[C@H]1O[C@H]2[C@H](C)[C@H]4OC(=O)CC5CC[C@H]6OC7[C@H]8O[C@]9(CC[C@H]%10CC(O)(CO)[C@H](CC[C@H]%11C[C@@H](C)C(O)(CO)C(C[C@@H]4O[C@H]2C[C@H]1O3)O%11)O%10)CC8O[C@@H]7[C@@H](O9)[C@H]6O5 (stereo partly drawn) | > 1 | > 1 |  | 0.00451 | > 0.205 |  | > 1 | > 1 | > 1 | > 1 |
| Brc1cc2nn(-c3ccccc3)nc2c2nonc12 | > 100 | > 100 | > 100 | > 100 | > 100 |  | > 100 | > 100 | > 100 | > 100 |

| Structure (SMILES) | TGI (A549 NSCLC) [µM] | TGI (CCRF-CEM leukemia) [µM] | TGI (HCT-15 colon) [µM] | TGI (NCI-H522 lung) [µM] | TGI (NCI/ADR-RES ovarian) [µM] | TGI (RXF 393 renal) [µM] | TGI (SW-620 colon) [µM] | TGI (OVCAR-3 ovarian) [µM] | TGI (SR leukemia) [µM] | TGI (UACC-257 melanoma) [µM] |
| --- | --- | --- | --- | --- | --- | --- | --- | --- | --- | --- |
| Clc1ccc(OCc2nnc(CCCCCCCCc3nnc(COc4ccc(Cl)cc4)n3Nc3ccccc3)n2Nc2ccccc2)cc1 | > 83.3 |  | > 100 | 34.5 | 81.5 | 70.8 | > 100 | 39.9 |  | > 100 |
| COc1ccc2cc(NC(=O)N/N=C\c3ccc(Cl)cc3)ccc2c1 | > 100 | > 100 | > 100 | > 100 | > 100 |  | > 100 | > 100 | > 100 | > 100 |
| Cc1cccc(C)c1NC(=O)C(=O)C1C(=O)NC(=O)NC1=O | > 100 | > 100 | > 100 | > 100 |  | > 100 | > 100 | > 100 | > 100 | > 100 |
| O=C1NC2OC(CO)C(O)C(O1)C2O (stereo not drawn) |  | > 100 | > 100 | > 100 |  | > 100 | > 100 | > 100 | > 100 | > 100 |
| Cc1cc2ncc3c(=O)n(NS(=O)(=O)c4ccc(N)cc4)ccc3n2n1 | > 100 | > 100 | > 100 | > 100 |  |  | > 100 | > 100 |  | > 100 |
| CC1(C(=O)O)CCCC1C(=O)O (stereo not drawn) | > 100 | > 100 | > 100 | > 100 | > 100 | > 100 | > 100 | > 100 |  | > 100 |
| COc1ccc2c(c1)CN1C(=N2)CSC1c1ccccc1Cl (stereo not drawn) | > 100 |  | 38.9 | 39.2 | 53.8 | 29.7 | 41.7 |  | 27 | 28.8 |
| O=C(CC1=NCCN1)c1ccccc1 | > 285 | > 511 | > 750 | > 750 | > 750 | > 750 | > 750 | > 750 |  | > 750 |
| CC1S/C(=N/c2nnc(-c3ccccc3)o2)NC1=O (stereo not drawn) | > 100 | > 100 | > 100 | > 100 | > 100 | > 100 | > 100 | 69.5 |  | > 100 |
| CC(C)(C)C1CCC2(CC1)c1[nH]c3ccccc3c1C1(CCC(C(C)(C)C)CC1)c1[nH]c3ccccc3c12 (stereo not drawn) | > 100 | > 100 | > 100 | > 100 |  | > 100 | > 100 |  |  | > 100 |
| O=C1C=CC(=O)c2c(O)c(NCCc3ccc(O)cc3)c(Cl)c(O)c21 | > 10 | > 10 | > 10 | > 10 | > 10 |  | > 10 | > 10 |  | > 10 |
| NC1CNC(=O)c2c(Cl)sc(Cl)c21 (stereo not drawn) | > 100 |  | > 100 |  | > 100 | > 100 | > 100 | > 100 | > 100 | > 100 |
| Cc1cc2[nH]c3c(C#N)c4c(c(=O)n3c2cc1C)CCCC4 | > 100 | > 100 | > 100 | > 100 | > 100 |  | > 100 | > 100 |  | > 100 |
| CN(C)S(=O)(=O)Nc1nnc(S(N)(=O)=O)s1 | > 100 |  | > 100 | > 100 | > 100 | > 100 | > 100 | > 100 | > 100 |  |
| CCOC(=O)C1=C(OC(OCC)C(CC)[Se]c2ccccc2)CCCC1 (stereo not drawn) | > 100 | 38.7 | 41.2 | 28.4 |  | 37.7 |  | 65.7 |  | > 100 |
| COC1(OC)CCCCC2c3cccc(OC(C)=O)c3C21OC(C)=O (stereo not drawn) | > 100 | > 100 | > 100 | > 100 |  |  | > 100 | > 100 | > 100 | > 100 |
| O=C1C=C(c2ccccc2)O/C1=C/C(=O)c1ccc(Cl)cc1 |  | > 100 | 39.5 | 27.7 | 50 | 34.7 | 27.1 | 31.9 |  | 35.6 |
